Measured values from paper PMC9501983, “Transport and Permeation Properties of Dapivirine: Understanding Potential Drug-Drug Interactions” (Pharmaceutics, 2022).

Columns and labels:
P-gp = target: T1, P-gp (Homo sapiens, UniProt P08183); assay: Bi-directional transport across MDCKII P-gp and WT cell monolayers; type: in vitro ADME
T1 construct: expressed in transfected cells; host or cells: MDCKII (Madin-Darby canine kidney) cells, provided by Dr. Philip E. Empey

MRP4 [1] = test system: MRP4; set-up: method as in PMID 26102284; conditions: DPV at 10 μM; cited from earlier work
MRP4 [2] = target: T2, MRP4 (Homo sapiens, UniProt O15439); assay: ATPase assay (ADP-Glo Max) in MRP4 vesicles; type: biochemical; set-up: purchased Thermo Fisher Scientific; conditions: DPV 20 μM; prostaglandin E2 20 μM; 60 min, 37 °C
T2 sequence (O15439 1-1325): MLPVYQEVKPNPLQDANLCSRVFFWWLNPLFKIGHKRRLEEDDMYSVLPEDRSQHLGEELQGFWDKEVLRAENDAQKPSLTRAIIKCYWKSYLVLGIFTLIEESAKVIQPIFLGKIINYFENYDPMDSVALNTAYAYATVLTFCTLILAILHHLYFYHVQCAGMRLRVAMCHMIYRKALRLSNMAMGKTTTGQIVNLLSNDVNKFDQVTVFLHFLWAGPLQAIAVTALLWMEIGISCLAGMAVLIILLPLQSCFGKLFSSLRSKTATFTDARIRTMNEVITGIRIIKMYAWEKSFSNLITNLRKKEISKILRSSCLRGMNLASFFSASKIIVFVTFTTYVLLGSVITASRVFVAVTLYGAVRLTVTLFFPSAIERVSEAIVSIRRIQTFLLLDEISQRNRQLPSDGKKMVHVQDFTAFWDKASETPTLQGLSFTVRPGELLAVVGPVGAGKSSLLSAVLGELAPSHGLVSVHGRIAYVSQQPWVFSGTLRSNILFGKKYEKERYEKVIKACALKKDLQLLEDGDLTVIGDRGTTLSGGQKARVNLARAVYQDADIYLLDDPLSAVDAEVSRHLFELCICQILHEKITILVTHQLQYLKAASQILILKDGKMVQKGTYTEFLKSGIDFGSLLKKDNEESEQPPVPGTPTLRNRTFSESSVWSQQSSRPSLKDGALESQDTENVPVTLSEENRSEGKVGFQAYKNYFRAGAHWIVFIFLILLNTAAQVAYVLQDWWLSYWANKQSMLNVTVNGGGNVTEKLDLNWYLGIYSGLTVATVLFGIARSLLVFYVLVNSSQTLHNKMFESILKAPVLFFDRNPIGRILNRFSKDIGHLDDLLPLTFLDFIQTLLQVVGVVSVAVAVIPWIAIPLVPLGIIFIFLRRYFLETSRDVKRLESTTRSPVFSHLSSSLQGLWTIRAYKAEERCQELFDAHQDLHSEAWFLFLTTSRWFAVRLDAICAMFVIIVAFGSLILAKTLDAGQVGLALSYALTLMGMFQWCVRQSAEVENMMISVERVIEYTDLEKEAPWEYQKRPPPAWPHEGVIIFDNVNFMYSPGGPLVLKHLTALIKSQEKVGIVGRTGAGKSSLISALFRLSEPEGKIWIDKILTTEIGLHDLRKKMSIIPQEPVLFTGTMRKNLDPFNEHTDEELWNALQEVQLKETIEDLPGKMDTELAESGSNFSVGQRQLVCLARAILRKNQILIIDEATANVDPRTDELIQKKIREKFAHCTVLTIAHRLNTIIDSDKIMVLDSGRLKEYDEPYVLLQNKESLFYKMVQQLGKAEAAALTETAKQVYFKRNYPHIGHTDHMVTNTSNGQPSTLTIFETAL
Method: ATPase activity of MRP1 or MRP4 in transporter overexpressing membrane vesicles (10 μg of protein per assay) was measured by the ADP-Glo Max assay according to manufacturer’s protocol. The assay quantified the amount of ADP produced by the membrane vesicles over 60 min at 37 °C in the ATPase assay buffer (50 mM Tris-MOPS, 50 mM potassium chloride, 5 mM sodium azide, 2 mM dithiothreitol, 2 mM glutathione, 0.1 mM EGTA-Tris, and 10 mM magnesium chloride at pH 7.0). DPV was tested at 20 μM and compared to the baseline ATPase activity. A known MRP1 substrate, N-ethylmaleimide-S-glutathione (prepared by mixing N-ethylmaleimide and glutathione at a 1:1 molar ratio), at 10 mM and a known MRP4 substrate, prostaglandin E2, at 20 μM were used as positive controls. The reaction was initiated with 5 mM ATP and quenched with the ADP-Glo detection buffer. The amount of ADP produced was quantified by recording luminescence on a SpectraMax M3 plate reader (Molecular Devices, San Jose, CA, USA).

BCRP = target: T3, BCRP (Homo sapiens, UniProt Q9UNQ0); assay: Bi-directional transport across MDCKII BCRP and WT/EV cell monolayers
T3 sequence (Q9UNQ0 1-655): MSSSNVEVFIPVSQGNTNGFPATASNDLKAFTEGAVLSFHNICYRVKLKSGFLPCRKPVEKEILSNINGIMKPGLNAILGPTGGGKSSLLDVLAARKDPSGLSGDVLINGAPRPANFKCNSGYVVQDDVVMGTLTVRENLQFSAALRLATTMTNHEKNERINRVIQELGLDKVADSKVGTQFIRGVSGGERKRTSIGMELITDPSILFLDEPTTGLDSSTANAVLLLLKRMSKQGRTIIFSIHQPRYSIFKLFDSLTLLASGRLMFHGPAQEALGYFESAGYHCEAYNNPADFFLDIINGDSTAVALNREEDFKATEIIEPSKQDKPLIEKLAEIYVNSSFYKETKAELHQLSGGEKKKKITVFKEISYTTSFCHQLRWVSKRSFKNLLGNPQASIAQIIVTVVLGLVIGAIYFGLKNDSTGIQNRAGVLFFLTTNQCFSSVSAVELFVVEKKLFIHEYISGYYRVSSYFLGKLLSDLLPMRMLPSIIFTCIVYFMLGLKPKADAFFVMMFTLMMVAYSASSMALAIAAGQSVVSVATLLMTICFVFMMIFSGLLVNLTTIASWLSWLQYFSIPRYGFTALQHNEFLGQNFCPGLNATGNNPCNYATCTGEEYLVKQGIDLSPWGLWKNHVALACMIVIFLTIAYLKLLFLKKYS

T1 sequence (P08183 whole entry): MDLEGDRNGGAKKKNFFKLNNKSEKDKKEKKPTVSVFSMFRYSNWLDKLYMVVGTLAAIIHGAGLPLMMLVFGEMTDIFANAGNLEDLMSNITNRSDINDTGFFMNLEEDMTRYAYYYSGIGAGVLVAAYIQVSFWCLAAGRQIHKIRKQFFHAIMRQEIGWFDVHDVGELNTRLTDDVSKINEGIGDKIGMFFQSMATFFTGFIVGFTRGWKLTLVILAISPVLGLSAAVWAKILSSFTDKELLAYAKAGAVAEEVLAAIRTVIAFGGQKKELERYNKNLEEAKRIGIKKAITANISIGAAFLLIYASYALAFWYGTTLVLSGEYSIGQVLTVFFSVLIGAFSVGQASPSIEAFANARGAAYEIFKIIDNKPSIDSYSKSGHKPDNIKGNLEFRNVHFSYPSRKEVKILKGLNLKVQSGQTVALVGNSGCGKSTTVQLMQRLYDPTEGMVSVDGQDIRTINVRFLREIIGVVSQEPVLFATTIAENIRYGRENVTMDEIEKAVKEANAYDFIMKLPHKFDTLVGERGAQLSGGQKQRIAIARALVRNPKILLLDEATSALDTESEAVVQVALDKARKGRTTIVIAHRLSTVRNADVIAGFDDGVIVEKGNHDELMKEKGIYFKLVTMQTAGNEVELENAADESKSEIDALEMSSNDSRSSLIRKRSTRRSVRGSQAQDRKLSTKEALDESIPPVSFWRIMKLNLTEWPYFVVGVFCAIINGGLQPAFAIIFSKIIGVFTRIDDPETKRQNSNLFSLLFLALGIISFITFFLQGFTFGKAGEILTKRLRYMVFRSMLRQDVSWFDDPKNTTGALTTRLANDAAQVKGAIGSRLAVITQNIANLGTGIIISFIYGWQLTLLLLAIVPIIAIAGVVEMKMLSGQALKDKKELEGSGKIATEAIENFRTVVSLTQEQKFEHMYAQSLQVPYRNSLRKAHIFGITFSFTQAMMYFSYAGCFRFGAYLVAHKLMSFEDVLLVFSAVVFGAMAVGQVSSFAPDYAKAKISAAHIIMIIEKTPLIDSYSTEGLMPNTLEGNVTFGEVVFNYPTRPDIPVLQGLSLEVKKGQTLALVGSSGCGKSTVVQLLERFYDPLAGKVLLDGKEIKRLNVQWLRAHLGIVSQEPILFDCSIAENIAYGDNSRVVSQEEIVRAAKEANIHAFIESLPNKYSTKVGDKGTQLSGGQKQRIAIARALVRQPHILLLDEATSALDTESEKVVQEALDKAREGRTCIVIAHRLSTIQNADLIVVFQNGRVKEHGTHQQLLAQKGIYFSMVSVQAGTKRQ

Cc1cc(C)c(Nc2ccnc(Nc3ccc(C#N)cc3)n2)c(C)c1 [DPV, dapivirine]
DPV ER in MDCKII P-gp cells with verapamil, reduced to % of ER without (P-gp; 0.5 μM DPV, 100 μM verapamil): 65% | Impact on Papp of digoxin across MDCKII P-gp monolayers (either direction) (P-gp; 5 μM DPV, 1 μM digoxin): no significant impact | Substrate status for P-gp (P-gp; cellular system): not a substrate | efflux ratio at 90 min, 0.5 μM (P-gp; dog, MDCK-MDR1, pH 7.4, 0.5 μM DPV, read-out: Net flux ratio (ER MDCKII P-gp / ER MDCKII WT)): 1.31 | Effect on MRP4 expression level (MRP4 [1]): downregulating | ATPase activity in MRP4 vesicles, % of baseline (MRP4 [2]): no significant stimulation | DPV ER in MDCKII BCRP cells with Ko143, reduced to % of ER without (BCRP; 0.5 μM DPV, 1 μM Ko143): 85% | Impact on Papp of nitrofurantoin across MDCKII BCRP monolayers (either direction) (BCRP; 5 μM DPV, 1 μM nitrofurantoin): no significant impact | Substrate status for BCRP (BCRP; cellular system): not a substrate | efflux ratio at 90 min, 0.5 μM (BCRP; dog, pH 7.4): 1.33
